The source made the active and inactive calls.
Columns and labels:
[1] = molecular target: Cytochrome P450 3A4 (Homo sapiens, UniProt P08684);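 note: CYP3A4 tested as one member of a cytochrome P450 panel screen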
[2] = molecular target: T1, Cytochrome P450 1A2 (Homo sapiens, UniProt P05177);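 note: PubChem cytochrome P450 panel assay, CYP1A2 panel member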
T1 sequence (P05177 whole entry): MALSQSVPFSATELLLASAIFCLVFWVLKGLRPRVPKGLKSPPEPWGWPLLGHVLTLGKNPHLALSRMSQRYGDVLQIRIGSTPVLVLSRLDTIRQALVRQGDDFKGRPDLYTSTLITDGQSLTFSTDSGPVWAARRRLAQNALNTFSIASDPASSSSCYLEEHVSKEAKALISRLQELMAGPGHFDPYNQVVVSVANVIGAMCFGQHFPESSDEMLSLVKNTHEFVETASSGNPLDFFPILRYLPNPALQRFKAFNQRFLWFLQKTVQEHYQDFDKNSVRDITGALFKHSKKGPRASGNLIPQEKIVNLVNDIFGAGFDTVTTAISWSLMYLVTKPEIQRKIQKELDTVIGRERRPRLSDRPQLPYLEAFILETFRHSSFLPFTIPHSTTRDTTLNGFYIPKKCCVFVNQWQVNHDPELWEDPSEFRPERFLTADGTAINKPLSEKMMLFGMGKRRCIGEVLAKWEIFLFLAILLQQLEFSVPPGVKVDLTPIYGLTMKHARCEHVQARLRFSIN

[3] = molecular target: Cytochrome P450 2D6 (Homo sapiens, UniProt P10635);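 note: CYP2D6 member of a cytochrome P450 panel assay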
Chain of Cytochrome P450 2D6 (P10635 whole entry): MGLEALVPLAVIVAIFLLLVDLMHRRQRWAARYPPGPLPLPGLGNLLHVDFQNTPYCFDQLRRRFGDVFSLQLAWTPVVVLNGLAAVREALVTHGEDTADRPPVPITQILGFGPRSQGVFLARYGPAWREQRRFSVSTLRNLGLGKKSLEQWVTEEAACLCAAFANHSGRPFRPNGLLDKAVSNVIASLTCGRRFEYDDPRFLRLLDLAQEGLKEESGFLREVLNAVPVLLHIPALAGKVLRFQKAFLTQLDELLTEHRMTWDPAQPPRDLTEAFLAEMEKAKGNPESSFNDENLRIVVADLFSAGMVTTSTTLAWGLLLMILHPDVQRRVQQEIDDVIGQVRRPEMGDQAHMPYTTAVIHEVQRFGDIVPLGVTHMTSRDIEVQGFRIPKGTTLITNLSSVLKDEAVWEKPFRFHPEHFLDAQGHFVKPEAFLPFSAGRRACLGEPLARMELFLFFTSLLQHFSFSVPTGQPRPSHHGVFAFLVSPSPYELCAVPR

[4] = test system: Streptococcus; experiment: GAS UMAA2166 growth inhibition – luminescence, BacTiterGlo, counter-screen for streptokinase expression inhibitor project, dose response (AID 1915); format: functional, organism-based;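 note: potency for reduction of bacterial viability or growth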
[5] = molecular target: T2, Streptokinase A (Streptococcus pyogenes serotype M1, UniProt P10520); experiment: viability-normalized secreted streptokinase activity reduction – plasminogen activation absorbance, OD405, dose response (AID 1914); format: functional, Streptococcus pyogenes M1 GAS;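 note: secreted streptokinase activity via plasminogen activation per viability signal from cell pellet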
T2 sequence (P10520 whole entry): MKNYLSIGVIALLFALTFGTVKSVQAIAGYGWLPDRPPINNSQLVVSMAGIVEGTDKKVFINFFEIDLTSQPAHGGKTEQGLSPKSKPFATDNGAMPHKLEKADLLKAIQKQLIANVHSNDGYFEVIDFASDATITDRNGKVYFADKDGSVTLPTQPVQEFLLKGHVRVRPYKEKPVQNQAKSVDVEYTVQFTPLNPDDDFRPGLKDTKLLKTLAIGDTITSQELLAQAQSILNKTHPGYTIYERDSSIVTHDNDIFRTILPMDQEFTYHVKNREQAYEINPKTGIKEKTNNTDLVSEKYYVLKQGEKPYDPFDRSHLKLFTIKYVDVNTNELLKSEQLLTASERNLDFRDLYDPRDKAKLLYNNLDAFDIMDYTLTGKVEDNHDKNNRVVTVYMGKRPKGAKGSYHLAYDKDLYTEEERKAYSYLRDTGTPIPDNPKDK

[6] = test system: Streptococcus sp. 'group A'; experiment: Streptococcus pyogenes SK(-)GAS viability under kanamycin – luminescence, BacTiterGlo, confirmation, counter-screen for streptokinase expression inhibitor project, dose response (AID 1900); format: functional, organism-based
[7] = molecular target: T3, Corticotropin-releasing factor receptor 2/Corticotropin-releasing factor-binding protein (Homo sapiens, UniProt P24387+Q13324); experiment: activators of CRF receptor 2 with binding protein – uHTS hits, confirmation (AID 602473); format: functional; conditions: read-out: EC50_Mean
T3 sequence (Q13324 whole entry): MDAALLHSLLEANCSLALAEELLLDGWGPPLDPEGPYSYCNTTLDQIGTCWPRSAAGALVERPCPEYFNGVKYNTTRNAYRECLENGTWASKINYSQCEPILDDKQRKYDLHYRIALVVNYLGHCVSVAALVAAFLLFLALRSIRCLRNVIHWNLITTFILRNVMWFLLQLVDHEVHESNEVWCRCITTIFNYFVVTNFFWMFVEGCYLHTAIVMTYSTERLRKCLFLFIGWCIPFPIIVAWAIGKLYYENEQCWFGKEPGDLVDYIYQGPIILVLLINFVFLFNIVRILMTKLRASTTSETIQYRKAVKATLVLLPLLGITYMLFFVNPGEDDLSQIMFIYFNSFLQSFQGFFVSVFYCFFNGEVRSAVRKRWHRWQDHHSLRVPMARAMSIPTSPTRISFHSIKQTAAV
T3 sequence (P24387 whole entry): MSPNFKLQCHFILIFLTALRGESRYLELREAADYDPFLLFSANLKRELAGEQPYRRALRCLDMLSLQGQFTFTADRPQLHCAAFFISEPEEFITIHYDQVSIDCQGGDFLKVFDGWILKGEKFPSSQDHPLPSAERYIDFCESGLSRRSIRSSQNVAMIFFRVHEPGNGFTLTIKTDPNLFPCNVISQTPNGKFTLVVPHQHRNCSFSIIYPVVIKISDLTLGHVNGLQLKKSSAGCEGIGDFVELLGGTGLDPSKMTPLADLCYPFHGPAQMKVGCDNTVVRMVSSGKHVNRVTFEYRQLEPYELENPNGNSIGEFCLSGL

[8] = test system: H4; experiment: Luminescence Cell-Based Dose Response HTS to Identify Activators of 5'UTR Stem-Loop Driven Prion Protein mRNA Translation in H4 Neuroglioblastoma Cells. [Related pubchem assays: 1829 (Project Summary), 1814 (Primary HTS)]; format: functional; conditions: Homo sapiens
[9] = Luminescence Cell-Based Dose Confirmation HTS to Identify Activators of 5'UTR Stem-Loop Driven Alpha-Synuclein mRNA Translation in H4 Neuroglioblastoma Cells. [Related pubchem assays: 1829 (Project Summary), 1814 (Primary HTS)]; format: functional
[10] = Luminescence Cell-Based Dose Response HTS to Identify Activators of Luciferase Translation or Activity in H4 […] Cells. [Related pubchem assays: 1829 (Project Summary), 1814 (Primary HTS)]; format: functional
[11] = molecular target: T4, Rac GTPase-activating protein 1 (Homo sapiens, UniProt Q9H0H5); experiment: blockers of MgcRacGAP-driven Rac1 GTP hydrolysis – biochemical, ADP Hunter fluorescence, primary and confirmatory, confirmation (AID 624330); format: functional
T4 sequence (Q9H0H5 whole entry): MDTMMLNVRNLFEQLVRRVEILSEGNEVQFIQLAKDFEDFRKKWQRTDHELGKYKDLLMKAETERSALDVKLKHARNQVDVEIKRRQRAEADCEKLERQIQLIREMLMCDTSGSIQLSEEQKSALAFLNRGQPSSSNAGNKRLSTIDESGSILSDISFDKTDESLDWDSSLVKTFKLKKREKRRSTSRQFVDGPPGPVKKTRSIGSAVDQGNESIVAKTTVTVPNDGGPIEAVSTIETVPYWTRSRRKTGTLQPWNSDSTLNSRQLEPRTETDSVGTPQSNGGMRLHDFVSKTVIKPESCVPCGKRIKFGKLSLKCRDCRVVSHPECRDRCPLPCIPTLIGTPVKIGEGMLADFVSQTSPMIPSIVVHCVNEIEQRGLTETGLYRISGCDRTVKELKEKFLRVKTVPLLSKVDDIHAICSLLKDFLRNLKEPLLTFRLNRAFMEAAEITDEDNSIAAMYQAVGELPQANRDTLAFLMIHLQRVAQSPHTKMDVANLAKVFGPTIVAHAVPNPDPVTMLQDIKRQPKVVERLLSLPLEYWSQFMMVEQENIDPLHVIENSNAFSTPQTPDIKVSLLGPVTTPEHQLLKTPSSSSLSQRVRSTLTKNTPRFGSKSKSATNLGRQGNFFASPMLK

[12] = molecular target: Cytochrome P450 2C19 (Homo sapiens, UniProt P33261); experiment: Cytochrome panel assay with activity outcomes. Panel member name: p450-cyp2c19 Compounds with AC50 equal or less than 10 uM are considered active; format: functional; conditions: read-out: AC50
Chain of Cytochrome P450 2C19 (P33261 whole entry): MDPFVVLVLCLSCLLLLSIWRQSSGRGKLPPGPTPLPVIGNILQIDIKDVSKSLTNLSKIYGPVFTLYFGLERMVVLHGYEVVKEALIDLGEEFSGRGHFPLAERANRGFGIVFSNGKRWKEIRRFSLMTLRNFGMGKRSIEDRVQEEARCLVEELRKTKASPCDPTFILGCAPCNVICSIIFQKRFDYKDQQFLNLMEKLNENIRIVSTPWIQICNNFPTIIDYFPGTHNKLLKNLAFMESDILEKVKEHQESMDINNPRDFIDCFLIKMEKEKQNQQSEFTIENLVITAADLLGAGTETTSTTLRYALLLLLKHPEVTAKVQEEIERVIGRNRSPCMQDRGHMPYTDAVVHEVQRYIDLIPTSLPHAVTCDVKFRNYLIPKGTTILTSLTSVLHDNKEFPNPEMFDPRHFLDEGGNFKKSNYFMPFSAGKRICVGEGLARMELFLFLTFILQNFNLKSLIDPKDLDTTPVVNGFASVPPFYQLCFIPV

Chain of Cytochrome P450 3A4 (P08684 whole entry): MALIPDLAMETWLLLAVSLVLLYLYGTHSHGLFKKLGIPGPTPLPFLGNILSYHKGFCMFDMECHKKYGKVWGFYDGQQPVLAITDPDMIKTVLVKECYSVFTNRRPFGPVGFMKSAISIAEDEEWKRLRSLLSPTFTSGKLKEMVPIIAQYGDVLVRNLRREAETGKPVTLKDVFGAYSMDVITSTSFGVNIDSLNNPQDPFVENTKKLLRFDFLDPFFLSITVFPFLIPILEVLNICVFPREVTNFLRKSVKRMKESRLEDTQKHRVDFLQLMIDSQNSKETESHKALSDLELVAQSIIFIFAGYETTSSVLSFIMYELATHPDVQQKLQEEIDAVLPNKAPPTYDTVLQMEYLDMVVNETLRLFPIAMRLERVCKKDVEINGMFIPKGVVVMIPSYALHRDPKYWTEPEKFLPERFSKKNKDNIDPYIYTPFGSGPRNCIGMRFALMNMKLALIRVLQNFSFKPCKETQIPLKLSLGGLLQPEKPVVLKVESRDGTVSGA

For `NCCCCNS(=O)(=O)c1ccc2c(Cl)cccc2c1`, the AC50 [1] was 25.1 µM (inconclusive), the AC50 [2] was 39.8 µM (inconclusive) and the AC50 [3] was 31.6 µM (inconclusive).
In the case of `COc1ccc(CN(C)S(=O)(=O)c2ccc3c(c2)OCCO3)cc1`, the EC50 [4] is reported as > 150 µM (not active), the EC50 [5] is reported as > 150 µM (not active) and the EC50 [6] is reported as > 150 µM (not active).
For `Cc1[nH]c2ccccc2c1C(=O)CN1CCCCC1C` (stereo not given), the EC50 [7] was 9.87 µM (active).
In the case of `COc1ccc(/C=C2\SC(=O)N(CCNC(=O)Cc3coc4cc(OC)ccc34)C2=O)cc1`, the EC50 [8] is reported as 10.4 µM (active), the EC50 [9] is reported as 23.4 µM (active) and the EC50 [10] is reported as 11.5 µM (active).
For `Cc1nn(-c2ccccc2)c(C)c1C(=O)OCC(=O)N(C)C1CCS(=O)(=O)C1` (stereo not given), the EC50 [9] was 0.313 µM (active) and the EC50 [10] was 12.5 µM (active).
In the case of `COC(=O)c1ccccc1NS(=O)(=O)c1ccc2c3c(cccc13)C(=O)N2`, the AC50 [1] is reported as 12.6 µM (inconclusive), the AC50 [2] is reported as 15.8 µM (inconclusive) and the AC50 [3] is reported as 28.2 µM (inconclusive).
For `Cc1ccc(/C=C2\SC(N3CCCCC3)=NC2=O)cc1`, the EC50 [8] was 45.1 µM (active), the EC50 [9] was 53.1 µM (active) and the EC50 [10] was 10.1 µM (active).
For `CCC/C=C(\CCC)C(NS(=O)(=O)c1cccc2cccnc12)c1ccc(C(=O)OC)cc1` (stereo not given), the AC50 [2] was 6.31 µM (inconclusive).
In the case of `COC(=O)[C@H](C)[C@@H]1C[C@@]1(C)[C@@H](NC(=O)OCc1ccccc1)c1ccccc1`, the AC50 [2] is reported as 15.8 µM (inconclusive).
In the case of `Fc1ccc(Br)cc1C1C=C(c2ccc(Br)s2)Nc2ncnn21` (stereo not given), the EC50 [4] is reported as 24.3 µM (active), the EC50 [5] is reported as > 150 µM (not active) and the EC50 [6] is reported as 4.65 µM (active).
For `COc1cc(/C=C/C(=O)OCC(=O)N2CCN(S(=O)(=O)c3ccc(C)cc3C)CC2)ccc1O`, the IC50 [11] was 88.2 µM (active).
In the case of `O=S(=O)(c1cccc(-c2nnc(SCc3nc4ccccc4s3)o2)c1)N1CCOCC1`, the EC50 [8] is reported as > 120 µM (not active), the EC50 [9] is reported as 5.25 µM (active) and the EC50 [10] is reported as 21.4 µM (active).
With `CC(C)(C)c1ccc(C(=O)NCc2ccc(Cl)cc2)cc1` the AC50 [2] was 2 µM (inconclusive).
With `COc1ccc(C(=O)NCc2cc3ccccc3n2C)cc1` the EC50 [8] was 9.84 µM (active), the EC50 [9] was 7.51 µM (active) and the EC50 [10] was 12 µM (active).
With `CCO[C@H]1O[C@@H]([C@H](COCc2ccccc2)OCc2ccccc2)[C@@H](OCc2ccccc2)[C@H]1O` the AC50 [12] was 5.01 µM (inconclusive), the AC50 [2] was 12.6 µM (inconclusive) and the AC50 [3] was 15.8 µM (inconclusive).
In the case of `Cc1cc(Cc2cc(C)c(N)cc2N)c(N)cc1N`, the AC50 [2] is reported as 2 µM (inconclusive).
In the case of `CCOc1cc(CN2CCN(C(=O)CC(C)C)CC2)ccc1OC`, the IC50 [11] is reported as 155 µM (active).
For `COc1cc(NC(=O)c2ccccc2)c(OC)cc1NC(=O)CN1CCN(c2ccccn2)CC1`, the AC50 [1] was 12.6 µM (inconclusive) and the AC50 [2] was 25.1 µM (inconclusive).
With `CCCCN1C(=O)NC(=O)/C(=C(\C)Nc2ccc(OCC)cc2)C1=O` the EC50 [4] was 21.5 µM (active), the EC50 [5] was > 150 µM (not active) and the EC50 [6] was 8.66 µM (active).
In the case of `O=C(/C=C/c1cccnc1)c1ccc(NC(=O)c2cccc(Br)c2)cc1`, the AC50 [2] is reported as 14.1 µM (inconclusive) and the AC50 [3] is reported as 2 µM (inconclusive).
For `COCCn1c(=O)c(-c2ccc(OC)cc2)nc2cnc(Nc3cccc(OC)c3)nc21`, the AC50 [1] was 5.01 µM (inconclusive) and the AC50 [2] was 10 µM (inconclusive).
With `CC1Cc2ccccc2N1C(=O)CNCCCN(C)C` (stereo not given) the IC50 [11] was 76.9 µM (active).
With `CCOC(=O)C1(CCc2ccccc2)CCN(C(=O)CCn2cncn2)CC1` the EC50 [8] was 7.67 µM (active), the EC50 [9] was 28.8 µM (active) and the EC50 [10] was 12 µM (active).
With `O=[N+]([O-])c1cc([N+](=O)[O-])c2nonc2c1Nc1ccccc1O` the IC50 [11] was 76.9 µM (active).
For `Cn1nc(C(F)(F)F)c(C(=O)Nc2ccc(F)cc2F)c1Sc1cccc(C(F)(F)F)c1`, the AC50 [2] was 15.8 µM (inconclusive) and the AC50 [3] was 20 µM (inconclusive).
In the case of `COc1ccc(NC2CCCN(C(=O)CCN3CCCC3=O)C2)cc1OC` (stereo not given), the IC50 [11] is reported as 293 µM (active).
With `COC(=O)[C@@]1(Cc2ccc(F)cc2)[C@H]2c3cc(C(=O)N4CCCC4)n(Cc4ccc(S(C)(=O)=O)cc4)c3C[C@H]2CN1C(=O)c1ccccc1` the AC50 [1] was 1.26 µM (inconclusive) and the AC50 [2] was 15.8 µM (inconclusive).
With `CCN(CC)CCSc1nnc2c3ccccc3n(CCc3ccccc3)c2n1` the EC50 [8] was > 120 µM (not active), the EC50 [9] was > 120 µM (not active) and the EC50 [10] was 16.1 µM (active).
In the case of `Nc1ccc2c(c1Br)Cc1ccccc1-2`, the IC50 [11] is reported as 43.8 µM (active).
With `O=C1NC(=O)C2(N1)C(=O)c1cccc3cccc2c13` (stereo not given) the EC50 [7] was 8.84 µM (active).
In the case of `Cn1c(SCC(=O)N/N=C/c2cc([N+](=O)[O-])ccc2O)nnc1-c1ccccc1`, the EC50 [7] is reported as > 53 µM (inactive).
In the case of `Fc1cccc(/C=N/NC(=S)Nc2ccccc2Cl)c1`, the EC50 [8] is reported as > 120 µM (not active), the EC50 [9] is reported as 19.6 µM (active) and the EC50 [10] is reported as 4.14 µM (active).
For `COC(=O)C1C(O)=C(/C=N/c2ccc(N)cc2)C(=O)CC1(C)C` (stereo not given), the IC50 [11] was 40 µM (active).
For `O=C(CSc1ccc2ccccc2n1)N/N=C/c1ccc(O)cc1`, the IC50 [11] was 73.2 µM (active).
With `CC(=O)Nc1nnc(S)s1` the IC50 [11] was 66.2 µM (active).
For `CC(=O)COc1ccc2c3c(c(=O)oc2c1C)CCCCC3`, the EC50 [8] was > 120 µM (not active), the EC50 [9] was 28.8 µM (active) and the EC50 [10] was 38.4 µM (active).
